Among the data in PubChem BioAssay AID256 (DTP/NCI, 2004) are T/C values, retold here.

SMILES strings stand for the structures. Where “and” joins values, the source holds several entries; their conditions need not be identical. Equal entries are not always repeated. Inconclusive results and toxic doses are left out.

The test system of the test is CD2F1 mice, L1210 leukemia ip, survival T/C. Description: NCI In Vivo Anticancer Drug Screen. Data for tumor model L1210 Leukemia (intraperitoneal) in CD2F1 (CDF1) mice. Particulars: higher = longer survival. In a few lines: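 Ratio T/C, where T is the treated-group value and C the vehicle-dosed control value, from mice implanted with a transplantable tumor.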
Setting [1] is: endpoint: mean survival time, dose: 100.0 mg/kg/injection, schedule: Q01DX009 (ip), vehicle: water.
Setting [2] is: endpoint: mean survival time, dose: 100.0 mg/kg/injection, schedule: Q01DX009 (ip), vehicle: saline with Tween-80.
The mark [3] stands for this setting: endpoint: mean survival time, dose: 200.0 mg/kg/injection, schedule: Q01DX009 (ip), vehicle: saline with Tween-80.
[4] abbreviates: endpoint: mean survival time, dose: 400.0 mg/kg/injection, schedule: Q01DX009 (ip), vehicle: saline with Tween-80.
Setting [5] is: endpoint: mean survival time, dose: 25.0 mg/kg/injection, schedule: Q01DX009 (ip), vehicle: saline with Tween-80.
[6] abbreviates: endpoint: mean survival time, dose: 50.0 mg/kg/injection, schedule: Q01DX009 (ip), vehicle: saline with Tween-80.
[7] abbreviates: endpoint: mean survival time, dose: 100.0 mg/kg/injection, schedule: Q04DX003 (ip), vehicle: saline with Tween-80.
The mark [8] stands for this setting: endpoint: mean survival time, dose: 200.0 mg/kg/injection, schedule: Q04DX003 (ip), vehicle: saline with Tween-80.
Setting [9] is: endpoint: mean survival time, dose: 400.0 mg/kg/injection, schedule: Q04DX003 (ip), vehicle: saline with Tween-80.

Turning to `O=C(NO)c1cc(O)c(O)c(O)c1`, the T/C runs as follows: under setting [1], 117 % of control; (endpoint: mean survival time, dose: 200.0 mg/kg/injection, schedule: Q01DX009 (ip), vehicle: distilled water + Tween-80) 154 % of control; (endpoint: mean survival time, dose: 200.0 mg/kg/injection, schedule: Q01DX009 (ip), vehicle: water) 156 % of control; (endpoint: mean survival time, dose: 400.0 mg/kg/injection, schedule: Q01DX009 (ip), vehicle: distilled water + Tween-80) 104 % of control; (endpoint: mean survival time, dose: 400.0 mg/kg/injection, schedule: Q01DX009 (ip), vehicle: water) 100 % of control; (endpoint: mean survival time, dose: 800.0 mg/kg/injection, schedule: Q01DX009 (ip), vehicle: distilled water + Tween-80) 116 % of control. In addition, the T/C by setting is: (endpoint: median survival time, dose: 25.0 mg/kg/injection, schedule: Q01DX009 (ip), vehicle: distilled water + Tween-80) 107 % of control; (endpoint: median survival time, dose: 50.0 mg/kg/injection, schedule: Q01DX009 (ip), vehicle: distilled water + Tween-80) 120 % of control; (endpoint: median survival time, dose: 200.0 mg/kg/injection, schedule: Q01DX009 (ip), vehicle: distilled water + Tween-80) 158 % of control and 162 % of control; (endpoint: median survival time, dose: 400.0 mg/kg/injection, schedule: Q01DX009 (ip), vehicle: distilled water + Tween-80) 90 % of control.

On to `CCC(=O)OCCNc1ccc([N+](=O)[O-])cc1[N+](=O)[O-]`, for which the T/C was 106 % of control (endpoint: mean survival time, dose: 100.0 mg/kg/injection, schedule: Q04DX002 (ip), vehicle: other); 109 % of control (endpoint: mean survival time, dose: 200.0 mg/kg/injection, schedule: Q04DX002 (ip), vehicle: other); 91 % of control (endpoint: mean survival time, dose: 400.0 mg/kg/injection, schedule: Q04DX002 (ip), vehicle: other).

As to `O=C(O)c1ccc([N+](=O)[O-])cc1`, the T/C (endpoint: mean survival time, dose: 100.0 mg/kg/injection, schedule: Q04DX002 (ip), vehicle: Klucel (hydroxypropylcellulose) (HPC)) was 93 % of control; the T/C (endpoint: mean survival time, dose: 200.0 mg/kg/injection, schedule: Q04DX002 (ip), vehicle: Klucel (hydroxypropylcellulose) (HPC)) was 101 % of control; the T/C (endpoint: mean survival time, dose: 400.0 mg/kg/injection, schedule: Q04DX002 (ip), vehicle: Klucel (hydroxypropylcellulose) (HPC)) was 86 % of control.

Regarding `O=C(N/N=C/c1cccc2ccccc12)C(O)c1ccccc1` (stereo not given), the T/C under setting [2] is 104 % of control, the T/C under setting [3] is 101 % of control and the T/C under setting [4] is 98 % of control.

Turning to `CCN(CC)CCCC(C)NS(=O)(=O)c1cccc2c(N(C)C)cccc12` (stereo not given), the T/C (endpoint: mean survival time, dose: 25.0 mg/kg/injection, schedule: Q01DX009 (ip), vehicle: water) was 102 % of control; the T/C (endpoint: mean survival time, dose: 50.0 mg/kg/injection, schedule: Q01DX009 (ip), vehicle: water) is 98 % of control; the T/C under setting [1] is 96 % of control.

Take `Cc1c2cc(Cl)c3ccccc3c2c[n+]2ccccc12`: the T/C is, setting by setting: (endpoint: mean survival time, dose: 3.12 mg/kg/injection, schedule: Q01DX009 (ip), vehicle: saline with Tween-80) 102 % of control and 106 % of control; (endpoint: mean survival time, dose: 6.25 mg/kg/injection, schedule: Q01DX009 (ip), vehicle: saline with Tween-80) 100 % of control and 109 % of control; (endpoint: mean survival time, dose: 12.5 mg/kg/injection, schedule: Q01DX009 (ip), vehicle: saline with Tween-80) 118 % of control and 102 % of control; under setting [5], 114 % of control and 104 % of control; under setting [6], 114 % of control and 110 % of control; under setting [2], 124 % of control and 102 % of control.

With `CCCCNCCC#N`, the T/C by setting is: under setting [7], 102 % of control; under setting [8], 95 % of control; under setting [9], 98 % of control.

Regarding `CSc1nc(NC2OC(CO)C(O)C(O)C2O)c(C(C)=O)c(=O)n1C` (stereo not given), the T/C is 98 % of control (endpoint: median survival time, dose: 12.5 mg/kg/injection, schedule: Q01DX005 (ip), vehicle: saline with Tween-80); 98 % of control (endpoint: median survival time, dose: 25.0 mg/kg/injection, schedule: Q01DX005 (ip), vehicle: saline with Tween-80); 97 % of control (endpoint: median survival time, dose: 50.0 mg/kg/injection, schedule: Q01DX005 (ip), vehicle: saline with Tween-80); 100 % of control (endpoint: median survival time, dose: 100.0 mg/kg/injection, schedule: Q01DX005 (ip), vehicle: saline with Tween-80); 88 % of control (endpoint: median survival time, dose: 200.0 mg/kg/injection, schedule: Q01DX005 (ip), vehicle: saline with Tween-80).

Consider `CCC(=O)[O][Bi]([c]1ccccc1)[c]1ccccc1`, for which the T/C reads like this: (endpoint: median survival time, dose: 3.12 mg/kg/injection, schedule: Q01DX009 (ip), vehicle: Klucel (hydroxypropylcellulose) (HPC)) 108 % of control; (endpoint: median survival time, dose: 6.25 mg/kg/injection, schedule: Q01DX009 (ip), vehicle: Klucel (hydroxypropylcellulose) (HPC)) 108 % of control; (endpoint: median survival time, dose: 12.5 mg/kg/injection, schedule: Q01DX009 (ip), vehicle: Klucel (hydroxypropylcellulose) (HPC)) 103 % of control; (endpoint: median survival time, dose: 25.0 mg/kg/injection, schedule: Q01DX009 (ip), vehicle: Klucel (hydroxypropylcellulose) (HPC)) 112 % of control and 111 % of control.

As for `OCC1(O)OCC(O)C(F)C1O` (stereo not given), the T/C is 96 % of control (endpoint: mean survival time, dose: 100.0 mg/kg/injection, schedule: Q01DX009 (ip), vehicle: saline); 88 % of control (endpoint: mean survival time, dose: 100.0 mg/kg/injection, schedule: Q04DX003 (ip), vehicle: saline); 96 % of control (endpoint: mean survival time, dose: 200.0 mg/kg/injection, schedule: Q01DX009 (ip), vehicle: saline); 89 % of control (endpoint: mean survival time, dose: 200.0 mg/kg/injection, schedule: Q04DX003 (ip), vehicle: saline); 94 % of control (endpoint: mean survival time, dose: 400.0 mg/kg/injection, schedule: Q01DX009 (ip), vehicle: saline); 91 % of control (endpoint: mean survival time, dose: 400.0 mg/kg/injection, schedule: Q04DX003 (ip), vehicle: saline).

In the case of `CCN(CC)CCN1Cc2ccccc2C1`, the T/C is 102 % of control under setting [5]; 94 % of control under setting [6]; 96 % of control and 107 % of control under setting [2].

Consider `CC(C)CCC(C)C1CCC2C3CCC4CC(=O)CC4(C)C3CCC12C` (stereo not given), for which the T/C was 100 % of control under setting [7], 94 % of control under setting [8] and 97 % of control under setting [9].

On to `CCOC(=O)CC1c2nc3ccccc3cc2CN1C(=O)CCOC(C)=O` (stereo not given), for which the T/C is, setting by setting: under setting [2], 95 % of control; under setting [7], 104 % of control; under setting [3], 92 % of control; under setting [8], 100 % of control; under setting [4], 97 % of control; under setting [9], 97 % of control.

For `C/C(=N\Nc1ccc([N+](=O)[O-])cc1[N+](=O)[O-])C1CCCCC1`, the T/C under setting [7] was 100 % of control, the T/C under setting [8] is 91 % of control and the T/C under setting [9] was 91 % of control.

For `Nc1ccc2cc(Cl)ccc2c1`, the T/C is 103 % of control under setting [6], 105 % of control under setting [2], 95 % of control under setting [7] and 95 % of control under setting [8].

Turning to `CC(C)(C)C1=C(N=[N+]=[N-])C(=O)C(C(C)(C)C)=C(N=[N+]=[N-])C1=O`, the T/C by setting is: (endpoint: mean survival time, dose: 100.0 mg/kg/injection, schedule: Q01DX001 (ip), vehicle: other) 104 % of control; (endpoint: mean survival time, dose: 200.0 mg/kg/injection, schedule: Q01DX001 (ip), vehicle: other) 104 % of control; (endpoint: mean survival time, dose: 400.0 mg/kg/injection, schedule: Q01DX001 (ip), vehicle: other) 101 % of control.

For the compound `CC(=O)C1CCC2CC3CCCCC3N(C(C)=O)C2C1` (stereo not given), the T/C is, setting by setting: (endpoint: mean survival time, dose: 50.0 mg/kg/injection, schedule: Q01DX001 (ip), vehicle: saline with Tween-80) 107 % of control; (endpoint: mean survival time, dose: 100.0 mg/kg/injection, schedule: Q01DX001 (ip), vehicle: saline with Tween-80) 105 % of control; (endpoint: mean survival time, dose: 200.0 mg/kg/injection, schedule: Q01DX001 (ip), vehicle: saline with Tween-80) 100 % of control.

As for `COc1cc(/C=N/n2c(-c3ccccc3)nc3ccccc3c2=O)cc(Br)c1O`, the T/C (endpoint: mean survival time, dose: 50.0 mg/kg/injection, schedule: Q01DX009 (ip), vehicle: Klucel (hydroxypropylcellulose) (HPC)) is 91 % of control; the T/C (endpoint: mean survival time, dose: 100.0 mg/kg/injection, schedule: Q01DX009 (ip), vehicle: Klucel (hydroxypropylcellulose) (HPC)) is 105 % of control; the T/C (endpoint: mean survival time, dose: 200.0 mg/kg/injection, schedule: Q01DX009 (ip), vehicle: Klucel (hydroxypropylcellulose) (HPC)) is 102 % of control.

In the case of `Cc1nc2c(c(-c3ccccc3)n1)Cc1ccccc1O2`, the T/C is 98 % of control (endpoint: mean survival time, dose: 100.0 mg/kg/injection, schedule: Q01DX001 (ip), vehicle: saline); 98 % of control (endpoint: mean survival time, dose: 200.0 mg/kg/injection, schedule: Q01DX001 (ip), vehicle: saline); 101 % of control (endpoint: mean survival time, dose: 400.0 mg/kg/injection, schedule: Q01DX001 (ip), vehicle: saline).

For `CC(=O)C(=O)O.CC(=O)C(=O)O.[NH-]C1CCCCC1[NH-].[Pt+2]` (stereo not given), the T/C is, setting by setting: (endpoint: mean survival time, dose: 1.56 mg/kg/injection, schedule: Q04DX003 (ip), vehicle: other) 109 % of control; (endpoint: mean survival time, dose: 12.5 mg/kg/injection, schedule: Q04DX003 (ip), vehicle: other) 120 % of control; (endpoint: median survival time, dose: 25.0 mg/kg/injection, schedule: Q01DX009 (ip), vehicle: dextrose) 87 % of control.
